In ChEMBL document CHEMBL1201862, “PubChem BioAssay data set” (2004):
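Each compound was tested at five concentrations against cells in 96-well plates for 48 hours. The concentration for 50% growth inhibition is given as GI50.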 The source made the active and inactive calls. Cut-off read from the data, not from the text of the source: active = GI50 up to about 1.1 µM and inactive = higher.

How the values were obtained:
Experiment in all cases: NCI tumour cell line growth inhibition, 48 h
MDA-MB-231 = tested on: MDA-MB-231
OVCAR-3 = tested on: OVCAR-3
PC-3 = tested on: PC-3
MDA-N = tested on: MDA-N
ACHN = tested on: ACHN
DU-145 = tested on: DU-145
T47D = tested on: T47D
MOLT-4 = tested on: MOLT-4
SW-620 = tested on: SW-620
UACC-62 = tested on: UACC-62
OVCAR-8 = tested on: OVCAR-8
SNB-19 = tested on: SNB-19
HCT-15 = tested on: HCT-15
OVCAR-5 = tested on: OVCAR-5

SMILES	GI50 (MDA-MB-231)	GI50 (OVCAR-3)	GI50 (PC-3)	GI50 (MDA-N)	GI50 (ACHN)	GI50 (DU-145)	GI50 (T47D)	GI50 (MOLT-4)	GI50 (SW-620)	GI50 (UACC-62)	GI50 (OVCAR-8)	GI50 (SNB-19)	GI50 (HCT-15)	GI50 (OVCAR-5)
Cc1ccc(C(=O)Cc2nc3c([nH]c2=O)c(C)nn3-c2ccccc2)c(C)c1	> 10 µM (inactive)	3.25 µM (inactive)	> 10 µM (inactive)	> 10 µM (inactive)	> 10 µM (inactive)	> 10 µM (inactive)	5.45 µM (inactive)	> 10 µM (inactive)	6.59 µM (inactive)	> 10 µM (inactive)	8.22 µM (inactive)	> 10 µM (inactive)	> 10 µM	
O=C(O)C(F)(F)C(F)(F)C(F)(F)C(F)(F)C(F)(F)C(F)(F)C(F)(F)C(F)(F)F	46.2 µM (inactive)	43.8 µM (inactive)	42.1 µM (inactive)	40.4 µM (inactive)	65.3 µM (inactive)	47.6 µM (inactive)	57.3 µM (inactive)	> 100 µM (inactive)	52.5 µM (inactive)	> 100 µM (inactive)	43.9 µM (inactive)	39.6 µM (inactive)	27.4 µM	33.3 µM (inactive)
CC(=C(c1ccccc1)c1ccccc1)N1C(=O)CC(=O)N1C		32.4 µM (inactive)	21.9 µM (inactive)	48.3 µM (inactive)	> 100 µM (inactive)	> 100 µM (inactive)	78.2 µM (inactive)	38.4 µM (inactive)	> 100 µM (inactive)	26 µM (inactive)	99.1 µM (inactive)	81.7 µM (inactive)		53.2 µM (inactive)
Cc1ccc2c3c1[C@@H]1O[C@@H]1c1cccc(c1-3)[C@@H]1O[C@H]21	18 µM (inactive)		15 µM (inactive)	14.4 µM (inactive)	12.7 µM (inactive)	11 µM (inactive)	3.08 µM (inactive)	3.96 µM (inactive)		20 µM (inactive)	11.5 µM (inactive)	19.8 µM (inactive)	15.3 µM	18.1 µM (inactive)
CCOC(=O)C1=NN(c2ccc(Cl)cc2)C2=CC(C)=NN(C)C(=S)N21	44.5 µM (inactive)	56.5 µM (inactive)	> 100 µM (inactive)	> 100 µM (inactive)	72.6 µM (inactive)	79.3 µM (inactive)	23.9 µM (inactive)	> 100 µM (inactive)	94.6 µM (inactive)	40.6 µM (inactive)	41.3 µM (inactive)	41.5 µM (inactive)	67.5 µM	> 100 µM (inactive)
CN(C1=NCCO1)c1cccc2ccccc12	> 10 µM (inactive)	> 10 µM (inactive)	> 10 µM (inactive)	> 10 µM (inactive)	> 10 µM (inactive)	> 10 µM (inactive)	> 10 µM (inactive)	> 10 µM (inactive)	> 10 µM (inactive)	> 10 µM (inactive)	> 10 µM (inactive)	> 10 µM (inactive)	> 10 µM	> 10 µM (inactive)
C=CCc1cccc2cc(C(=O)Nc3ccc(C)cc3)c(=N)oc12	> 100 µM (inactive)	> 100 µM (inactive)	> 100 µM (inactive)	> 100 µM (inactive)	> 100 µM (inactive)	> 100 µM (inactive)	> 100 µM (inactive)	> 100 µM (inactive)	> 100 µM (inactive)	> 100 µM (inactive)	> 100 µM (inactive)	> 100 µM (inactive)	> 100 µM	> 100 µM (inactive)
O=C(O)c1ccc(C(=O)O)c2c(C(=O)O)ccc(C(=O)O)c12	> 100 µM (inactive)	> 100 µM (inactive)	> 100 µM (inactive)	> 100 µM (inactive)	> 100 µM (inactive)	> 100 µM (inactive)	> 100 µM (inactive)	> 100 µM (inactive)	> 100 µM (inactive)	> 100 µM (inactive)	> 100 µM (inactive)	> 100 µM (inactive)	> 100 µM	> 100 µM (inactive)
c1ccc(OCc2nnc(CCCCCCCCc3nnc(COc4ccccc4)o3)o2)cc1	47.6 µM (inactive)	27.8 µM (inactive)	> 100 µM (inactive)	> 100 µM (inactive)	> 100 µM (inactive)	> 100 µM (inactive)		> 100 µM (inactive)	> 100 µM (inactive)		28.9 µM (inactive)	73.8 µM (inactive)	> 100 µM	> 100 µM (inactive)
CN1C(=O)CC(=O)N1/C(=C/c1ccccc1)c1ccccc1	12.6 µM (inactive)	39.3 µM (inactive)	32 µM (inactive)	> 100 µM (inactive)	54.1 µM (inactive)	> 100 µM (inactive)	> 100 µM (inactive)	30.3 µM (inactive)	> 100 µM (inactive)	76.9 µM (inactive)	> 100 µM (inactive)	> 100 µM (inactive)		> 100 µM (inactive)
N=C(N)SCCC(=O)CCSC(=N)N	> 100 µM (inactive)	> 100 µM (inactive)	> 100 µM (inactive)	> 100 µM (inactive)	> 100 µM (inactive)	> 100 µM (inactive)	> 100 µM (inactive)	99.5 µM (inactive)	> 100 µM (inactive)		> 100 µM (inactive)	> 100 µM (inactive)	> 100 µM	
CC12CCC(=O)[C@@]1(C)CCCC2O (stereo not given in full)	> 100 µM (inactive)		> 100 µM (inactive)	> 100 µM (inactive)	> 100 µM (inactive)	> 100 µM (inactive)	> 100 µM (inactive)	> 100 µM (inactive)	> 100 µM (inactive)	> 100 µM (inactive)	> 100 µM (inactive)	> 100 µM (inactive)	> 100 µM	> 100 µM (inactive)
CC=C/C=C/[C@@H]1O[C@](O)([C@H](CC)C(=O)NC/C=C/C=C(\C)[C@@H](OC)[C@@H](C)[C@@H]2O[C@H](/C=C/C=C/C=C(\C)C(=O)c3c(O)cc[nH]c3=O)[C@H](O)[C@@H]2O)[C@H](O)[C@H](O)C1(C)C		> 100 µM (inactive)	> 100 µM (inactive)		> 100 µM (inactive)			73.6 µM (inactive)	> 100 µM (inactive)	> 100 µM (inactive)	72.3 µM (inactive)	> 100 µM (inactive)	> 100 µM	> 100 µM (inactive)
O=C(O)C(O)Cc1ccccn1 (stereo not given)	> 100 µM (inactive)	> 100 µM (inactive)	> 100 µM (inactive)		> 100 µM (inactive)	> 100 µM (inactive)	> 100 µM (inactive)		> 100 µM (inactive)	> 100 µM (inactive)	> 100 µM (inactive)	> 100 µM (inactive)	> 100 µM	> 100 µM (inactive)
CN(C)C(=O)C(F)(F)C(c1ccc(Br)cc1)C1C(=O)N(C)C(=O)N(C)C1=O (stereo not given)	> 100 µM (inactive)	> 100 µM (inactive)	> 100 µM (inactive)		> 100 µM (inactive)	> 100 µM (inactive)	> 100 µM (inactive)		> 100 µM (inactive)	> 100 µM (inactive)		> 100 µM (inactive)	> 100 µM	> 100 µM (inactive)
